The values that follow come from US20110046170A1, “NOVEL PYRIMIDINE-PYRIDINE DERIVATIVES” (priority 2008, published 2011).

One test addresses human S1P1 receptor (Homo sapiens, UniProt P21453). The experiment in a line: GTPγS assay to determine EC50 values. In kind it is biochemical. The note with it: 35S-GTPγS binding, membrane preparations of CHO cells expressing recombinant human S1P1 receptor; agonistic activity. How it is done: GTPγS Assay to Determine EC50 Values
GTPγS binding assays are performed in 96 well microtiter plates (Nunc, 442587) in a final volume of 200 μl, using membrane preparations of CHO cells expressing recombinant human S1P1 receptor. Assay conditions are 20 mM Hepes (Fluka, 54461), 100 mM NaCl (Fluka, 71378), 5 mM MgCl2 (Fluka, 63064), 0.1% BSA (Calbiochem, 126609), 1 μM GDP (Sigma, G-7127), 2.5% DMSO (Fluka, 41644), 50 pM ^35S-GTPγS (Amersham Biosciences, SJ1320). The pH is 7.4. Test compounds are dissolved and diluted in 100% DMSO and pre-incubated at rt for 30 min in 150 μl of the above assay buffer, in the absence of ^35S-GTPγS. After addition of 50 μl of ^35S-GTPγS, the assay is incubated for 1 h at rt. The assay is terminated by transfer of the reaction mixture to a Multiscreen plate (Millipore, MAHFC1H60) using a cell harvester from Packard Biosciences, and the plates are washed with ice-cold 10 mM Na2HPO4/NaH2PO4 (70%/30%), dried, sealed at the bottom and, after addition of 25 μl MicroScint20 (Packard Biosciences, order# 6013621), sealed on the top. Membrane-bound ^35S-GTPγS is measured with a TopCount from Packard Biosciences.
EC50 is the concentration of agonist inducing 50% of the maximal specific ^35S-GTPγS binding. Specific binding is determined by subtracting non-specific binding from maximal binding. Maximal binding is the amount of cpm bound to the Multiscreen plate in the presence of 10 μM of S1P. Non-specific binding is the amount of binding in the absence of an agonist in the assay.

Another test relates to circulating lymphocytes. The experiment in a line: Assessment of in vivo efficacy: circulating lymphocytes after oral administration. The note with it: 6 h after oral administration of 10 mg/kg to normotensive male Wistar rats, compared to vehicle-treated group; mean ± SEM. How it is done: Assessment of In Vivo Efficacy
The efficacy of the compounds of formula (I) is assessed by measuring the circulating lymphocytes after oral administration of 3 to 30 mg/kg of a compound of formula (I) to normotensive male Wistar rats. The animals are housed in climate-controlled conditions with a 12 h-light/dark cycle, and have free access to normal rat chow and drinking water. Blood is collected before and 3, 6 and 24 h after drug administration. Full blood is subjected to hematology using Advia Hematology system (Bayer Diagnostics, Zurich, Switzerland).
All data are presented as mean±SEM. Statistical analyses are performed by analysis of variance (ANOVA) using Statistica (StatSoft) and the Student-Newman-Keuls procedure for multiple comparisons. The null hypothesis is rejected when p<0.05.

The structures appear in SMILES notation.

Chain of human S1P1 receptor (P21453 whole entry): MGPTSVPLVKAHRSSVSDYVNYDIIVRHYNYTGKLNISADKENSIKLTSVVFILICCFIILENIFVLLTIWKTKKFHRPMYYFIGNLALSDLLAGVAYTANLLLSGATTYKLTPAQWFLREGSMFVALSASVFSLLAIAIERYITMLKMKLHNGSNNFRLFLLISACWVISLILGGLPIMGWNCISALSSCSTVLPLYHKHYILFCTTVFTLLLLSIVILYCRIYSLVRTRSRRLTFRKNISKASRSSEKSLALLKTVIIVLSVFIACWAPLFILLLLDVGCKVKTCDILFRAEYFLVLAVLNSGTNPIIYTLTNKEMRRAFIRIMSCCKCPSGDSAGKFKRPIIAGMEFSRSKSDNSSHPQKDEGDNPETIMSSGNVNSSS

Broadly, the EC50 is the midpoint of the concentration-response curve. In the case of `Cc1cc(-c2noc(-c3cc(C)nc(NC(C)C)n3)n2)cc(C)n1` [Example 21], the EC50 at human S1P1 receptor was 1.6 nM. In the test with circulating lymphocytes, the Lymphocyte counts is given as −71 ± 2%.

As for `CCNc1nc(CC)cc(-c2nc(-c3cc(C)nc(C)c3)no2)n1` [Example 79, {4-[3-(2,6-Dimethyl-pyridin-4-yl)-[1,2,4]oxadiazol-5-yl]-6-ethyl-pyrimidin-2-yl}-ethyl-amine], on human S1P1 receptor, the EC50 is 1.2 nM. For the same compound, in the test with circulating lymphocytes, the Lymphocyte counts is −70 ± 2%.
